Experimental data reported in patent US7138147B2, “Arsenic sulfide compounds and derivatives thereof for the treatment of malignancies” (priority 1998, dated 2006).

What was measured:
[1] = test system: non-Hodgkin's lymphoma; test: Case study 4: non-Hodgkin's lymphoma patient; assay type: in vivo, human; conditions: case study 4, resistant to conventional anticancer treatment; since March, 1998
Excerpt: (§1) Newly diagnosed, or relapsing patients are given a different protocol of treatment than are those patients who are in current remission. […] Preferably the dose given will range from approximately 0.5 to approximately 0.75 gram of arsenic disulfide. This equates to 2 to 3 capsules, according to the above formulation, by mouth for one dose. After the initial three days, the patient is given the compound three times daily until remission is induced. To prevent complications due to the potential build up of arsenic in the body, treatment should not exceed 100 days. In most cases, favorable response should be induced before forty days of treatment. These later doses may be somewhat reduced in amount compared to the original three day dosages. […] At this point, the patient should be reevaluated through testing, and allowed to rest before beginning another course of treatment according to the present protocol.
A person diagnosed with non-Hodgkin's lymphoma in September 1996 was treated with a combination chemotherapy regimen and had cranial irradiation for meningeal lymphoma. They also had high dose chemo-radiotherapy for autologous stem cell transplant. The patient has several relapses including intracranial relapse and a large amount of lymphoma cells in peripheral blood with typical clinical and laboratory features of lymphoma/leukemia. […]

[2] = Side effects of arsenic disulfide treatment in patients; assay type: in vivo, human
Excerpt: as §1
(§2) The patient then abstains from treatment for a set period of time. During this time, the patient is tested. Treatment is adjusted according to test results with the period of abstention lasting from two weeks to 100 days, depending upon results. The length of the maintenance procedure varies according to patients' conditions, and may last as long as 3 years (including treating and resting periods). Each dose during this phase of treatment preferably contains arsenic disulfide in the range of approximately 0.50 to 0.75 gram. Once again the preferred method of administration is orally through use of a capsule as described above. Usually, a maintenance treatment is divided into two stages.
(§3) Exclusion criteria for the study included history of hypersensitivity to arsenic compounds, previous treatment with arsenic-containing medications, patient in critical condition, excessively low or high white blood counts, existing heart, liver or kidney conditions, and severe infection. Three patients were excluded on these grounds, leaving 48 patients in the study. All 48 cases were treated with arsenic disulfide according to the above protocol. ATRA or other cytotoxic agents were not used. All 48 patients are living and Leukemia free as of April, 1998.
Side effects of treatment with arsenic disulfide are minimal when compared to those of other antineoplastic agents. Potential side effects include loss of appetite, mild diarrhea, and transient reversible increase of aspartate aminotransferase (AST). A minority of patients experienced cutaneous itching or puffing of the eyelids, and mild leukopenia occurred slowly in 34% of patients. One patient had thrombocytopenia without bleeding. There were no deaths associated with the use of arsenic sulfide.

[3] = test system: acute promyelocytic leukemia (APL); test: Clinical treatment of APL patients with arsenic disulfide; assay type: in vivo, human
Excerpt: as §1, §2
All patients who make up a part of the case studies have been diagnosed with APL on the basis of cell morphology of AML-M3, that is acute hypergranular promyelocytic leukemia, immunological cell markers, chromosomal analysis showing (15;17) translocation, and positive PML/RARα mRNA expression. Some patients were referred to the study with a diagnosis based solely on pathologic changes in cell morphology; these patients' diagnoses were tracked and reconfirmed throughout the study. Chronic myeloid leukemia and lymphoma patients have also benefitted from arsenic disulfide treatment, as illustrated by case studies 3 and 4.
Fifty-one patients met the inclusion criteria for the study.
as §3

[4] = test system: chronic myeloid leukemia (CML); test: Case study 3: chronic myeloid leukemia patient; assay type: in vivo, human; conditions: case study 3, 0.6 gram twice daily
Protocol: A person was diagnosed as having chronic myeloid leukemia (CML) in February, 1959. […] Initially, they were treated with Myleran. On Jan. 20, 1960, the white blood cell count was […] showing a differential count of 11% promyelocyte and myelocyte. […] Patient was given 0.6 gram of arsenic disulfide twice daily. While being treated, blood and bone marrow pictures were controlled. The patient died, on Sep. 5, 1965 from infection unrelated to the arsenic sulfide treatment.

[5] = Solubility of As4S4 in solvents; assay type: physicochemical; conditions: polyvinylpyrrolidone, pyrrolidone, alcohol, ether, di-sodium hydrophosphate, mercaptopurine, sodium bicarbonate; various concentrations
Protocol: In other experiments, a number of solvents, such as polyvinylpyrrolidone, pyrrolidone, alcohol, ether, di-sodium hydrophosphate, mercaptopurine and sodium bicarbonate, were tested to increase solubility of As4S4. […] Accordingly, As4S4 solubilized in the above solvents is useful for intravenous administration.

[6] = EPA/600/8-91/061; cited from earlier work
[7] = in vivo; cited from earlier work
[8] = test system: refractory APL; conditions: intravenous 10 mg/day for 4–9 weeks; cited from earlier work
[9] = test system: NB4 cells; conditions: in vitro, APL cell line; cited from earlier work

S1[As]2S[As]3S[As]2S[As]13 [arsenic disulfide]
clinical outcome [1]: in remission
deaths associated with use ([2]; human, in vivo): no deaths
thrombocytopenia without bleeding ([2]; human, in vivo): One patient
mild leukopenia, incidence ([2]; occurred slowly): 34 % of patients
side effects compared to other antineoplastic agents ([2]; patients): minimal
time to complete remission level ([3]; case study 1): 36 days
blast cells and leukemic promyelocytes ([3]; case study 1, Aug. 28, 1997): less than 5%
hemoglobin and platelet levels ([3]; case study 1, FIG. 1): marked increase
blasts and white blood cells ([3]; case study 1, FIG. 2): dramatic decrease
clinical outcome ([3]; case study 1, newly diagnosed APL): complete remission
blasts and white blood cells ([3]; case study 2, FIG. 4): dramatic change
clinical outcome ([3]; case study 2, relapsed APL, treated 21 days): complete remission
patients living and leukemia free ([3]; of 48 APL patients treated, as of April, 1998, no ATRA or cytotoxic agents): 48 patients
patients attaining complete remission after one course of treatment ([3]; of ten newly diagnosed or relapsed patients): Eight
markers indicating residual leukemia cells after maintenance protocol ([3]; patients in complete remission before treatment with positive markers): persistently negative
patients alive and remaining in complete remission, leukemia free ([3]; ten newly diagnosed or relapsed patients): All ten
blood and bone marrow pictures [4]: controlled
solubility in solvents [5]: soluble
carcinogenicity classification [6]: human carcinogens

S=[As]S[As]=S (stereo not drawn) [arsenic trisulfide]
tumorigenicity [7]: inconclusive
carcinogenicity classification [6]: human carcinogens

arsenic trioxide
patients with complete morphologic remission [8]: 14 of 15
apoptosis (programmed cell death) [9]: induced apoptosis

calcium arsenate [reference compound]
tumorigenicity [7]: tumorigenic
